Assay results published in patent US20110281798A1, “Methods for Lowering Plasma Glucagon with Exendins and Exendin Agonist Analogs” (AMYLIN PHARMACEUTICALS, INC., priority 1999, published 2011).

How the values were obtained:
Sprague-Dawley rats = assay: Insulinotropic action during intravenous glucose challenge in rats; assay type: in vivo, rat; details: 30 pmol/kg/min i.v.
diabetic db/db mice = assay: Plasma glucose lowering in diabetic db/db mice, dose response; assay type: in vivo, mouse

Substance | Increase of 60-min insulin AUC versus saline (Sprague-Dawley rats; n.s. versus saline) [%] | Plasma glucose after glucose injection (Sprague-Dawley rats; saline 21.7) [mM] | 60-min glucose AUC (Sprague-Dawley rats; saline 987±39) [mM·min] | Glucose-lowering ED50 (diabetic db/db mice; diabetic db/db mice) [µg] | glucose lowering activity compared with exendin 4 (diabetic db/db mice; model not stated at b253)
GLP-1 [7-36]NH2 | 20 | 23.7 | 1096 ± 68 | 20.6 | –
Leu^14, Phe^25 1-28 exendin-4 (HGEGTFTSDLSKQLEEEAVRLAIEFLKN) [AC3177, a shortened analog of exendin 4] | – | – | – | – | nearly equipotent activity to exendin 4
